Source: PubChem BioAssay AID1963833 (Molecular Pharmacology Branch, DTP, NCI, 2024)

Tested on: 883617-216-R-J1-PDC complex spheroid viability
Assay: Anticancer human tumor 883617-216-R-J1-PDC patient-derived bladder carcinoma cell line growth inhibition [POLQ]
Details: for IC50: curve of first compound; for viability, T/C: stronger effect = lower value
Protocol: Multicellular complex tumor spheroid response to Polymerase (POL) inhibitors (novobiocin, ART-558, RP6685) in combination with a variety of drugs and investigational agents in selected tumor cell lines
The POL inhibitors (novobiocin, ART-558, and RP6685) were evaluated both individually and in combination with standard of care and investigational anticancer small molecules within a complex spheroid model of solid tumors. . Complex spheroids include a stromal component modeled by human endothelial cells (HUVEC) and fibroblasts modeled by human mesenchymal stem cells (MSCs). The concentration ranges selected for each drug and investigational agent were based upon clinically achievable concentrations if the clinical Cmax of the agent was known.
Compounds. The drugs and investigational agents: novobiocin (NSC847541), ART-558 (NSC835418), RP-6685 (NSC848927), peposertib (NSC802822), ceralasertib (NSC780249), elimusertib (NSC800525), camonsertib (NSC841442), AZD-1390 (NSC803789), olaparib (NSC753686), talazoparib (NSC767125), rucaparib (NSC756644), sotorasib (NSC818433), MRTX-1133 (NSC836407), SN-38 (NSC673596), topotecan (NSC609699), epotoside (NSC141540), doxorubicin (NSC123127), gemcitabine (NSC613327), 5-fluorouracil (NSC19893), paclitaxel (NSC125973), vemurafenib (NSC761431), MSA-2 (NSC828583), SN-011 (NSC837082), adavosertib (NSC754352), prexasertib (NSC758257), carboplatin (NSC241240) and oxaliplatin (NSC266046), were obtained from the National Cancer Institute (NCI) Developmental Therapeutics Program Chemical Repository (21). The FDA-approved anticancer drug set is available from the Developmental Therapeutics Program at https://dtp.cancer.gov/organization/dscb/obtaining/. […] The stock solutions were prepared in dimethyl sulfoxide (DMSO, Sigma-Aldrich, St. Louis, MO, cat. D2650), except for the platinum compounds which were prepared in saline (Quality Biological, Gaithersburg, MD, cat. 114-055-101), at 800-fold the tested concentration and stored at -70 degrees C prior to their use. All drugs and investigational agents were tested over a range starting from a high concentration at or near the clinical Cmax and decreasing in half-log increments. If the clinical Cmax for an agent had not been determined, the highest concentration tested was 10 microM, except for SN-38, which was tested at a high concentration of 1 microM.
Cell Culture. All cells were maintained in an incubator at 37 degrees C and 5% CO2 with 95% humidity. The PDC lines were cultured according to standard operating procedures established by the NCI PDMR (https://pdmr.cancer.gov). Table 3 of the manuscript, lists the cell lines along with the number of the three cell types plated to form the mct-spheroids and media for tumor cell growth. After thawing, all PDC lines, except 997537-175-T-J1-PDC and 415267-285-R-J2-PDC, were cultured in Matrigel-coated flasks prepared with a working solution of 1X Ham's F-12 nutrient mix, without supplementation (Thermo Fisher Scientific, cat. 11765054), 100 U/mL penicillin-streptomycin (Thermo Fisher Scientific, cat. 15140122), and 2.5% Matrigel (Corning Inc., Corning, NY, cat. 354248) for the first three passages. The two PDC lines 997537-175-T-J1-PDC and 415267-285-R-J2-PDC were cultured on uncoated flasks. The 857933-349-R-J2-PDC line was cultured in 6C/Colon 1B media containing advanced DMEM/F-12 (Thermo Fisher Scientific, cat. 12634028), 10 mM HEPES (Thermo Fisher Scientific, cat. 15630080), 1X GlutaMAX supplement (Thermo Fisher Scientific, cat. 35050061), 0.1 mg/mL primocin (InvivoGen, San Diego, CA, cat. ant-pm-2), 10% defined fetal bovine serum, heat inactivated (HyClone Laboratories Inc., Logan, UT, cat. SH30070.03HI), 50% L-WRN conditioned media (ATCC, cat. CRL-3276), 1.25 mM N-Acetyl-L-cysteine (Sigma-Aldrich, cat. A9165), 10 mM nicotinamide (Sigma-Aldrich, cat. N0636), 1X B-27 supplement (Thermo Fisher Scientific, cat. 17504044), 1X N-2 supplement (Thermo Fisher Scientific, cat. […]

[1] = second compound 0.0316 µM, first compound 0.0316 µM
[2] = second compound 0.0316 µM, first compound 0.1 µM
[3] = second compound 0.0316 µM, first compound 0.316 µM
[4] = second compound 0.0316 µM, first compound 1 µM
[5] = second compound 0.0316 µM, first compound 3.16 µM
[6] = second compound 0.0316 µM, first compound 10 µM
[7] = second compound 0.1 µM, first compound 0.0316 µM
[8] = second compound 0.1 µM, first compound 0.1 µM
[9] = second compound 0.1 µM, first compound 0.316 µM
[10] = second compound 0.1 µM, first compound 1 µM
[11] = second compound 0.1 µM, first compound 3.16 µM
[12] = second compound 0.1 µM, first compound 10 µM
[13] = second compound 0.316 µM, first compound 0.0316 µM
[14] = second compound 0.316 µM, first compound 0.1 µM
[15] = second compound 0.316 µM, first compound 0.316 µM
[16] = second compound 0.316 µM, first compound 1 µM
[17] = second compound 0.316 µM, first compound 3.16 µM
[18] = second compound 0.316 µM, first compound 10 µM
[19] = second compound 1 µM, first compound 0.0316 µM
[20] = second compound 1 µM, first compound 0.1 µM
[21] = second compound 1 µM, first compound 0.316 µM
[22] = second compound 1 µM, first compound 1 µM
[23] = second compound 1 µM, first compound 3.16 µM
[24] = second compound 1 µM, first compound 10 µM
[25] = second compound 3.16 µM, first compound 0.0316 µM
[26] = second compound 3.16 µM, first compound 0.1 µM
[27] = second compound 3.16 µM, first compound 0.316 µM
[28] = second compound 3.16 µM, first compound 1 µM
[29] = second compound 3.16 µM, first compound 3.16 µM
[30] = second compound 3.16 µM, first compound 10 µM
[31] = second compound 10 µM, first compound 0.0316 µM
[32] = second compound 10 µM, first compound 0.1 µM
[33] = second compound 10 µM, first compound 0.316 µM
[34] = second compound 10 µM, first compound 1 µM
[35] = second compound 10 µM, first compound 3.16 µM
[36] = second compound 10 µM, first compound 10 µM
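Note: spheroids exposed to compounds for seven days before readout.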
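Throughout, for viability, T/C: 100% = DMSO vehicle control viability.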

CC1COCCN1c1cc(C2(O)CC3CCC(C2)O3)c2cnn(-c3ccn[nH]3)c2n1 (centres undefined) + Cc1cccc(N(C)C(=O)C2C(O)CCN2c2nc(C)cc(C(F)(F)F)c2C#N)c1
IC50 (second compound 0.0316 µM): 156 nM
IC50 (second compound 0.1 µM): 173 nM
IC50 (second compound 0.316 µM): 188 nM
IC50 (second compound 1 µM): 125 nM
IC50 (second compound 3.16 µM): 173 nM
IC50 (second compound 10 µM): 215 nM
viability, T/C [1]: 76.6%
viability, T/C [2]: 58.4%
viability, T/C [3]: 35.7%
viability, T/C [4]: 33.7%
viability, T/C [5]: 23.9%
viability, T/C [6]: 23.9%
viability, T/C [7]: 80.4%
viability, T/C [8]: 54.9%
viability, T/C [9]: 41.2%
viability, T/C [10]: 37.9%
viability, T/C [11]: 26.8%
viability, T/C [12]: 23.2%
viability, T/C [13]: 71%
viability, T/C [14]: 61.2%
viability, T/C [15]: 38.6%
viability, T/C [16]: 35.8%
viability, T/C [17]: 24.2%
viability, T/C [18]: 24%
viability, T/C [19]: 78.6%
viability, T/C [20]: 48.8%
viability, T/C [21]: 41.7%
viability, T/C [22]: 33%
viability, T/C [23]: 27.9%
viability, T/C [24]: 23.2%
viability, T/C [25]: 79.3%
viability, T/C [26]: 54.9%
viability, T/C [27]: 44.9%
viability, T/C [28]: 31.6%
viability, T/C [29]: 26.4%
viability, T/C [30]: 23.4%
viability, T/C [31]: 81.5%
viability, T/C [32]: 60.3%
viability, T/C [33]: 39.3%
viability, T/C [34]: 42.4%
viability, T/C [35]: 31.4%
viability, T/C [36]: 23.9%

CC1COCCN1c1cc(C2(S(C)(=N)=O)CC2)nc(-c2ccnc3[nH]ccc23)n1 (centres undefined) + Cc1cccc(N(C)C(=O)C2C(O)CCN2c2nc(C)cc(C(F)(F)F)c2C#N)c1
IC50 (second compound 0.0316 µM): 3300 nM
IC50 (second compound 0.1 µM): 2860 nM
IC50 (second compound 0.316 µM): 2750 nM
IC50 (second compound 1 µM): 2760 nM
IC50 (second compound 3.16 µM): 2870 nM
IC50 (second compound 10 µM): 6000 nM
viability, T/C [1]: 97.7%
viability, T/C [2]: 91.2%
viability, T/C [3]: 92.8%
viability, T/C [4]: 77.5%
viability, T/C [5]: 50.9%
viability, T/C [6]: 30.8%
viability, T/C [7]: 102%
viability, T/C [8]: 89.9%
viability, T/C [9]: 87.7%
viability, T/C [10]: 65.2%
viability, T/C [11]: 48.6%
viability, T/C [12]: 36.1%
viability, T/C [13]: 88.2%
viability, T/C [14]: 96.4%
viability, T/C [15]: 94.7%
viability, T/C [16]: 77.8%
viability, T/C [17]: 46.6%
viability, T/C [18]: 38.6%
viability, T/C [19]: 108%
viability, T/C [20]: 93.5%
viability, T/C [21]: 84.3%
viability, T/C [22]: 68.4%
viability, T/C [23]: 43.9%
viability, T/C [24]: 37.2%
viability, T/C [25]: 105%
viability, T/C [26]: 94.1%
viability, T/C [27]: 93.1%
viability, T/C [28]: 65.8%
viability, T/C [29]: 50%
viability, T/C [30]: 38%
viability, T/C [31]: 119%
viability, T/C [32]: 91.4%
viability, T/C [33]: 112%
viability, T/C [34]: 74.4%
viability, T/C [35]: 67.6%
viability, T/C [36]: 37.8%
